Where a name gives a salt, the structure may show the parent alone.
Molecular target: kinase domain of IRE1 alpha (His-tagged kinase dead construct KR, AA G547-L977, D688N) (Homo sapiens (Human), UniProt O75460, D688N)
Experiment: IRE1α TR-FRET competition binding assay
Conditions: competition with Kinase Tracer 236, 0.1 μM; one hour at room temperature
Experimental: To determine the affinity of compound binding to the kinase domain of IRE1 alpha, a Time Resolved Fluorescence Resonance Energy Transfer (TR-FRET) competition assay was used. A His-tagged IRE1 alpha kinase dead construct containing the kinase and RNase domains (KR, AA G547-L977, D688N) was expressed in Sf9 insect cells. The purified protein (final concentration 0.006 μM micromolar) was pre-incubated with anti-His Europium labeled antibody (Life Technologies PV5596, final concentration 0.002 μM micromolar) for one hour at 4° C. in 1X TR-FRET Assay Buffer (50 mM HEPES, pH 7.5.10 mM MgCl2, 0.083 mM Brij 35, 1 mM DTT, and 0.1% bovine gamma globulin) prior to addition to test compounds. A fluorescent labeled probe based on an ATP competitive inhibitor (Kinase Tracer 236, Life Technologies PV5592) is added to a final concentration of 0.1 μM (micromolar). Reactions were carried out for one hour at room temperature in a final volume of 20 μL (microliter) in 384 well white ProxiPlates (Perkin Elmer 6008289). Binding of the tracer to the IRE1 protein alpha was detected in an Envision instrument (PerkinElmer) equipped with a TRF laser option and a LANCE/Delfia Dual/Bias D400/D630 mirror (Ex 347 nm, 1st Em 665 nm, 2nd Em 615 nm).
Exemplary compounds in Table A1 were tested in the IRE1α binding assays.

kinase domain of IRE1 alpha (His-tagged kinase dead construct KR, AA G547-L977, D688N), sequence (O75460 547-977 D688N): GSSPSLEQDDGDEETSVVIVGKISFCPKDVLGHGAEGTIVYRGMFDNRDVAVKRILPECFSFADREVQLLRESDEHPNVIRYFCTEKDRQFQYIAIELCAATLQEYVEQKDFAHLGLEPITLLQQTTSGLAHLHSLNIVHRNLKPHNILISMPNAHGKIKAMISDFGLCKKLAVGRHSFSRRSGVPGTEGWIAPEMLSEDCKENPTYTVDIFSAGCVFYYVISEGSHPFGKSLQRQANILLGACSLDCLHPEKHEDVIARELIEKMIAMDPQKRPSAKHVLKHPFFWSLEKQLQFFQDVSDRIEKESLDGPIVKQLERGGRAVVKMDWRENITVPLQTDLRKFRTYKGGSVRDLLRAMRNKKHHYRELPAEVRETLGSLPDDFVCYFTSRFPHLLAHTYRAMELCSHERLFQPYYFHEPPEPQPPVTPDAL

SMILES	IC50
O=S(=O)(Cc1ccccc1)Nc1c(F)cc(Oc2ncccc2-c2ccnc(NC3CNCC(C(F)F)C3)n2)c(F)c1F (single isomer, unassigned) [Compound 302, N-(4-((3-(2-((5-(Difluoromethyl)piperidin-3-yl)amino)pyrimidin-4-yl)pyridin-2-yl)oxy)-2,3,6-trifluorophenyl)-1-phenylmethanesulfonamide]	0.44 nM
O=S(=O)(CCC1CC1(F)F)Nc1ccc(Oc2ncccc2-c2ccnc(N[C@H]3CCCNC3)n2)c(F)c1F (stereo partly drawn) [Compound 217, N-(2,3-difluoro-4-((3-(2-(((S)-piperidin-3-yl)amino)pyrimidin-4-yl)pyridin-2-yl)oxy)phenyl)-2-(2,2-difluorocyclopropyl)ethane-1-sulfonamide]	16 nM
N#Cc1cccc(CS(=O)(=O)Nc2ccc(Oc3ncccc3-c3ccnc(N[C@H]4CCCNC4)n3)c(F)c2F)c1 [Compound 229, (S)-1-(3-cyanophenyl)-N-(2,3-difluoro-4-((3-(2-(piperidin-3-ylamino)pyrimidin-4-yl)pyridin-2-yl)oxy)phenyl)methanesulfonamide]	6.4 nM
O=S(=O)(Cc1ccccc1)Nc1c(F)cc(Oc2ncccc2-c2ccnc(CC3CCCNC3)n2)c(F)c1F (single isomer, unassigned) [Compound 198, 1-Phenyl-N-(2,3,6-trifluoro-4-((3-(2-(3-piperidylmethyl)pyrimidin-4-yl)-2-pyridyl)oxy)phenyl)methanesulfonamide]	1300 nM
O=S(=O)(Cc1ccccc1)Nc1c(F)cc(Oc2ncccc2-c2ccnc(NC3CNCC4(C3)CC4(F)F)n2)c(F)c1F (single isomer, unassigned) [Compound 300, N-(4-((3-(2-((1,1-Difluoro-5-azaspiro[2.5]octan-7-yl)amino)pyrimidin-4-yl)pyridin-2-yl)oxy)-2,3,6-trifluorophenyl)-1-phenylmethanesulfonamide]	8.7 nM
Cc1ccc(C(=O)NS(=O)(=O)c2ccccc2Cl)cc1Oc1ncccc1-c1ccnc(N[C@H]2CCCNC2)n1 [Compound 103, (S)-N-((2-chlorophenyl)sulfonyl)-4-methyl-3-((3-(2-(piperidin-3-ylamino)pyrimidin-4-yl)pyridin-2-yl)oxy)benzamide]	30 nM

Results, then the molecule that gave them:

IC50	SMILES
4.1 nM	Cc1cc(CS(=O)(=O)Nc2c(F)cc(Oc3ncccc3-c3ccnc(N[C@@H]4CNC[C@@H](F)C4)n3)c(F)c2F)no1 [Compound 204, 1-(5-methylisoxazol-3-yl)-N-(2,3,6-trifluoro-4-((3-(2-(((3S,5S)-5-fluoropiperidin-3-yl)amino)pyrimidin-4-yl)pyridin-2-yl)oxy)phenyl)methanesulfonamide]
1 nM	O=S(=O)(Cc1cccnc1)Nc1c(F)cc(Oc2ncccc2-c2ccnc(N[C@@H]3CNC[C@@H](F)C3)n2)c(F)c1F [Compound 256, 1-(Pyridin-3-yl)-N-(2,3,6-trifluoro-4-((3-(2-(((3S,5S)-5-fluoropiperidin-3-yl)amino)pyrimidin-4-yl)pyridin-2-yl)oxy)phenyl)methanesulfonamide]
0.42 nM	CC(C)(F)C1CNCC(Nc2nccc(-c3cccnc3Oc3cc(F)c(NS(=O)(=O)Cc4ccccc4)c(F)c3F)n2)C1 (single isomer, unassigned) [Compound 336, 1-Phenyl-N-(2,3,6-trifluoro-4-((3-(2-((5-(2-fluoropropan-2-yl)piperidin-3-yl)amino)pyrimidin-4-yl)pyridin-2-yl)oxy)phenyl)methanesulfonamide hydrochloride]
0.2 nM	COc1cccc(CS(=O)(=O)Nc2c(F)cc(Oc3ncccc3-c3ccnc(N[C@@H]4CNC[C@@H](F)C4)n3)c(F)c2F)c1 [Compound 385, 1-(3-Methoxyphenyl)-N-(2,3,6-trifluoro-4-((3-(2-(((3S,5S)-5-fluoropiperidin-3-yl)amino)pyrimidin-4-yl)pyridin-2-yl)oxy)phenyl)methanesulfonamide]

Reference: US12071425B2 (Genentech, Inc., priority 2018, dated 2024)
